Assay results reported in article PMC5581131, “The novel sphingosine-1-phosphate receptors antagonist AD2900 affects lymphocyte activation and inhibits T-cell entry into the lymph nodes” (Oncotarget, 2017).

Key:
C57BL/6 mice = test: T-cell subpopulations (naive, Tcm-like, Tef/em-like) in blood, spleen and lymph nodes, FACS; type: in vivo, mouse
Description: We have shown that AD2900 has a unique effect on T-cell distribution in mice. Since T-cell subpopulations such as naïve T cells, central memory T cells (Tcm), and effector/effector memory T cells (Tef/em) have designated roles in the immune response, the influence of AD2900 on the localization of these subpopulations was investigated. The analysis of T-cell subpopulations was performed by FACS using antibodies against commonly accepted surface markers. Some of the molecules that we used as markers are involved in T-cell migration, and their expression can be affected by our treatment. […] Therefore, we refer to the CCR7-CD44+ T-cell population as Tef/em-like cells and to the CCR7+ CD44+ (Figure 6) or CD44+ CD62L+ (Supplementary Figure 4B) T-cell population as Tcm-like cells. The calculated cell number of the different subpopulations in control mice is shown in the left panel of Figure 6.
Figure 6 AD2900 treatment influences the distribution of mice T-cell populations in the blood, spleen, and peripheral lymph nodes C57BL/6 mice were orally administered with AD2900 or FTY720, as shown in Figure 4. Leukocytes from blood, spleen, and pLNs were collected and stained with TCR-β, CD44, and CCR7 fluorescent antibodies and then analyzed by FACS analysis. The percentages of CCR7+ CD44+ Tcm-like cells (left panel), CCR7-CD44+ Tef/em-like cells (central panel), and CCR7 + CD44-naive T cells (right panel) of the total T-cell population (TCR-β+) in blood (A), spleen (B), and pLNs (C) are shown. All the significances are compared to untreated healthy mice. Results summarize three independent experiments. Results of Student’s t-test:*(P < 0.05, two-tailed test), ** (P < 0.01, two-tailed test), *** (P < 0.001, two-tailed test), **** (P < 0.0001, two-tailed test).
Murine lymphocytes: The phenotype of murine lymphocytes was analyzed by flow cytometry using anti-CD3e-FITC, anti-CD19-PB, anti-CCR7-APC, anti-CD44-FITC, anti-CD62L-APC, and anti-TCR-β-PB (Biolegend, CA, USA).
C57BL/6 female mice aged 7–8 weeks were obtained from Harlan Laboratories (Jerusalem, Israel). The animal study was conducted under appropriate conditions and was approved by the Institutional Animal Care and Use Committee of the Hebrew University of Jerusalem in accordance with the national laws and regulations for the protection of animals. AD2900 was dissolved in 10% BSA (MP Biomedicals, CA, USA) in DDW at 1 mg/ml and then further diluted in 200 ml water to get final concentrations at 1.8, 2.7, or 3.6 mg/l. AD2900 and FTY720 were supplied ad libitum to the mice for 2 days or 7 days. At the end of the experiment, blood was collected, and the mice were sacrificed and tissues (lymph nodes and spleen) were harvested.

S1P2 = biological target: T1, S1P2 (Homo sapiens, UniProt O95136); test: S1P2 antagonist test, S1P2 CRE-bla CHO cells; type: cell-based; settings: S1P2 CRE-BLA CHO cell line
T1 construct: expressed in transfected cells; host or cells: S1P2 CRE-bla CHO cells
Description: Since AD2900 is a sphingolipid analogue with properties that resemble those of S1P, we intended to examine its ability to interact with the S1P receptors. To delineate whether AD2900 can function as an agonistic or antagonistic compound to any of the S1P receptors, we used a high-throughput screening cell-based assay, employing cell lines stably transfected with human S1P receptors 1, 2, 3, 4, or 5 [37]. In this experiment, a compound with an IC50 or EC50 value ≤10 μM for a certain S1P receptor is considered active as an antagonist or an agonist, respectively. The results illustrate that AD2900 acts as an antagonist to all S1P receptors (Table 1, Supplementary Figure 3). […] No agonist activation was evident.
The S1P1 agonist test and S1P2, S1P3, S1P4, and S1P5 agonist and antagonist tests were conducted as previously described using S1P1 CRE-bla CHO cells, S1P2 CRE-bla CHO cells, S1P3 NFAT-bla CHO cells, Tango™ S1P4 (EDG6)-bla U-2 OS cells, and Tango™ S1P5 ([…])-bla U-2 OS cells. The S1P1 antagonist assay was carried out according to the manufacturer’s instructions using a Tango™ S1P1 (EDG1)-bla U-2 OS Cell-Based Assay (Invitrogen, NY, USA).

[1] = oral, as in Figure 4, % of total T cells

T1 sequence (O95136 whole entry): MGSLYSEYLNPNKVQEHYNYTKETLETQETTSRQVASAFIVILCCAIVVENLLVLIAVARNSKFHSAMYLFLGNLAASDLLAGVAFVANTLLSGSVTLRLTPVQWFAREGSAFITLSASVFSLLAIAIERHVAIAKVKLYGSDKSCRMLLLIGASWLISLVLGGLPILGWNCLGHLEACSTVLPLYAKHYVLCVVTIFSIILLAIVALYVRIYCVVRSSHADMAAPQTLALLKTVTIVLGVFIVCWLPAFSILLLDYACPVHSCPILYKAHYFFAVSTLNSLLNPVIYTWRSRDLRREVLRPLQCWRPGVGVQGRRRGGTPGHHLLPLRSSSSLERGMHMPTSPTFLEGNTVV

Structure (SMILES): CCCCCCCCCCCCCCCCNC(CO)(CO)CO [AD2900]
- Tcm-like cells in the blood and lymph nodes (C57BL/6 mice; compared to control): significantly downregulated
- percentage of Tcm-like cells in the spleen (C57BL/6 mice; compared to control): significantly upregulated
- percentage of naïve T-cell population among all T cells in the lymph nodes (C57BL/6 mice; compared with the untreated condition): remained the same
- upregulation of the percentage of Tef/em-like cells in the blood (C57BL/6 mice; oral, as in Figure 4): 48% ± 1%
- naïve T cells (CCR7+CD44-) reduced, mean of up to, of that in the control, in the blood (C57BL/6 mice; [1]): 32% ± 6%
- naïve T cells (CCR7+CD44-) reduced, of that in the control, in the spleen (C57BL/6 mice; [1]): 38% ± 12%
- IC50 (S1P2): 3.2 µM
